The target in one experiment is NRAS WT (Homo sapiens (Human), UniProt P01111+P62937). The experiment can be described thus: Ras-Raf disruption/FRET/MOA assay (BRAF RBD, Cyclophilin A). It counts as biochemical. The method, boiled down: (§1)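 TR-FRET read after 1.5 h with 10 nM anti-His Eu-W1024 and 50 nM anti-GST APC, following 3 h at 25 °C of GMPPNP-loaded His6-Ras (12.5 nM), GST-BRAF RBD (50 nM) and Cyclophilin A (25 μM) with compound from 30 μM final, 10 points, 3-fold. IC50 reported; pH 7.3 HEPES, 100 mM NaCl.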
NRAS WT, sequence (P01111 whole entry): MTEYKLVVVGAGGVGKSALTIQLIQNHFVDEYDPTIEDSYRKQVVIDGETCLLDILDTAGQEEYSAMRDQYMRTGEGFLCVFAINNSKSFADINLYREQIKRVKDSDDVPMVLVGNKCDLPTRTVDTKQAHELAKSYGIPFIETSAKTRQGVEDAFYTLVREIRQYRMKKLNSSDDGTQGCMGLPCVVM
NRAS WT, sequence (P62937 whole entry): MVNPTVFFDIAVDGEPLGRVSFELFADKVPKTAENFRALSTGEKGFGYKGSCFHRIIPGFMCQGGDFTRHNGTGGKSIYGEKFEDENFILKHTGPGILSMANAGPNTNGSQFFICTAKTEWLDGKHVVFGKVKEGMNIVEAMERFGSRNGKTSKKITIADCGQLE

The target of another experiment is KRAS G12C (Homo sapiens (Human), UniProt P01116+P62937, G12C). Described as above. It counts as biochemical. To be noted: read-out: KRAS G12C FRET IC50. The method in brief:
(§2)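 His6-K-Ras-GMPPNP (12.5 nM), GST-BRAF RBD (50 nM) and tagless Cyclophilin A (25 μM) were combined in 25 mM HEPES pH 7.3 with 100 mM NaCl, 5 mM MgCl2, 0.1% BSA and 0.002% Tween20, with compound as a 10-point 3-fold series from 30 μM final, then incubated 3 h at 25° C.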

The target of the next experiment is KRAS G13C (Homo sapiens (Human), UniProt P01116+P62937, G13C). The experiment is described as above. It counts as biochemical. The conditions noted are these: read-out: KRAS G13C FRET IC50. The method in brief: as §2
KRAS G13C, sequence (P01116 other isoform, or with tags, fused parts or gaps G13C): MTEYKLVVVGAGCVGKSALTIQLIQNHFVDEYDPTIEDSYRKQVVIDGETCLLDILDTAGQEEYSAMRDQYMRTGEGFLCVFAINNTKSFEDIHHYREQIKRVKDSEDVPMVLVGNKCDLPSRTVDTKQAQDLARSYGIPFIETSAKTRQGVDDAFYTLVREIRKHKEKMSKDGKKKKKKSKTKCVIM
KRAS G13C, sequence (P62937 whole entry): as the sequence (P62937 whole entry) above
In the next experiment the target is KRAS G13D (Homo sapiens (Human), UniProt P01116+P62937, G13D). Described as above. It counts as biochemical. The conditions noted are these: read-out: KRAS G13D FRET data IC50. The method, boiled down:
as §2

A further experiment concerns the target NRAS Q61R (Homo sapiens (Human), UniProt P01111+P62937, Q61R). The description is as above. It counts as biochemical. The method, boiled down: as §1
The target of a further experiment is KRAS G12S (Homo sapiens (Human), UniProt P01116+P62937, G12S). The experiment is described as above. It counts as biochemical. To be noted: read-out: KRAS G12S FRET IC50. The method in brief: as §2
KRAS G12S, sequence (P01116 other isoform, or with tags, fused parts or gaps G12S): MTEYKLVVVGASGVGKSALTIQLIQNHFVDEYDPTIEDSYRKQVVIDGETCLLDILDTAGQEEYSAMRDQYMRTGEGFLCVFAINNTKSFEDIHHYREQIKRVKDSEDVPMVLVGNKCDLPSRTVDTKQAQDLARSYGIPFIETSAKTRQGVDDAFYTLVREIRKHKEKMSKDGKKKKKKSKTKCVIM
KRAS G12S, sequence (P62937 whole entry): as the sequence (P62937 whole entry) above
The next experiment deals with KRAS Q61H (Homo sapiens (Human), UniProt P01116+P62937, Q61H). Described as above. It counts as biochemical. The method in brief: as §2
KRAS Q61H, sequence (P01116 other isoform, or with tags, fused parts or gaps Q61H): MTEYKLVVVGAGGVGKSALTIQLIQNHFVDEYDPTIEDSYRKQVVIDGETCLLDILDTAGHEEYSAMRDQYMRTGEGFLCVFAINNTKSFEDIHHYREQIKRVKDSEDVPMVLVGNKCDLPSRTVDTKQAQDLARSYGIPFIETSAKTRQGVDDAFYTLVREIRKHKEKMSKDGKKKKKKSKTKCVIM
KRAS Q61H, sequence (P62937 whole entry): as the sequence (P62937 whole entry) above
The next experiment addresses KRAS G12D (Homo sapiens (Human), UniProt P01116+P62937, G12D). Described as above. It counts as biochemical. The conditions noted are these: read-out: KRAS G12D FRET IC50. The method, boiled down:
as §2

In a further experiment the target is KRAS G12V (Homo sapiens (Human), UniProt P01116+P62937, G12V). Described as above. It counts as biochemical. The conditions noted are these: read-out: KRAS G12V FRET IC50. The method, boiled down:
as §2

The next experiment addresses KRAS WT (Homo sapiens (Human), UniProt P01116+P62937). The experiment is described as above. It counts as biochemical. The conditions noted are these: read-out: KRAS WT FRET data IC50. The method in brief:
as §2

Another experiment addresses NRAS G12C (Homo sapiens (Human), UniProt P01111+P62937, G12C). Described as above. It counts as biochemical. To be noted: read-out: NRAS G12C FRET data IC50. The method in brief:
as §1

The next experiment deals with NRAS Q61K (Homo sapiens (Human), UniProt P01111+P62937, Q61K). Described as above. It counts as biochemical. The method in brief:
as §1

In experiment [1] the test system is Capan-1 cells (K-Ras G12V). Kind of experiment: CellTiter-Glo cell viability, Capan-1. It counts as cell-based, human. The conditions noted are these: K-Ras G12V, 5-day treatment, read-out: Capan-1 Cell Viability IC50. The method, boiled down:
(§3)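 Luminescence read on day 5 after ~30 min room-temperature equilibration; compounds added directly to plated cells. Values = (sample signal/avg DMSO)*100, four-parameter logistic fit.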
For orientation: Cellular ATP, detected with luciferase, serves as a proxy for viable cell number.

For experiment [2], the system named is NCI-H358 cells (K-Ras G12C). Kind of experiment: CellTiter-Glo cell viability, NCI-H358. It counts as cell-based, human. To be noted: K-Ras G12C, 5-day treatment, read-out: H358 Cell Viability IC50. The method in brief:
as §3

The subject of experiment [3] is K-Ras G12C (NCI-H358 cells). The experiment can be described thus: Potency assay: pERK in NCI-H358 cells. It counts as cell-based, human. To be noted: NCI-H358 cells, 4 hours, read-out: pERK EC50 (H358 KRAS G12C). The method in brief:
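Cells plated the day before were exposed for 4 h at 37° C, 5% CO2 to a 10-point, 3-fold DMSO dilution series (10 mM top stock), in duplicate. Phospho-ERK was read by AlphaLISA SureFire Ultra or by In-Cell Western with DRAQ5 DNA stain, and IC50 came from a 4-parameter sigmoidal fit.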

SMILES strings stand for the structures. Where two headings read alike, the source gives them in different places. Bounds are passed on as bounds.

KRAS G12D, sequence (P01116 other isoform, or with tags, fused parts or gaps G12D): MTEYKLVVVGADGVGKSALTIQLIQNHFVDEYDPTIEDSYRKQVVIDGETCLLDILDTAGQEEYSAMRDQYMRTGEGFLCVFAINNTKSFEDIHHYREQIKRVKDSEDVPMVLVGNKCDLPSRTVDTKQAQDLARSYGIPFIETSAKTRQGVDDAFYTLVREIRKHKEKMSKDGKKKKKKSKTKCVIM
KRAS G12D, sequence (P62937 whole entry): as the sequence (P62937 whole entry) above
KRAS G13D, sequence (P01116 other isoform, or with tags, fused parts or gaps G13D): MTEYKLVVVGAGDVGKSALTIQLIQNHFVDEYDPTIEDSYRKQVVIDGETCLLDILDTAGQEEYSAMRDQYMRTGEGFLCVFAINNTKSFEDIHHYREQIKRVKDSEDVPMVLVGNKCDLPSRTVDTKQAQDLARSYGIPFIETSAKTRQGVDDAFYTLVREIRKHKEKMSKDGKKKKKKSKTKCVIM
KRAS G13D, sequence (P62937 whole entry): as the sequence (P62937 whole entry) above
KRAS WT, sequence (P01116 other isoform, or with tags, fused parts or gaps): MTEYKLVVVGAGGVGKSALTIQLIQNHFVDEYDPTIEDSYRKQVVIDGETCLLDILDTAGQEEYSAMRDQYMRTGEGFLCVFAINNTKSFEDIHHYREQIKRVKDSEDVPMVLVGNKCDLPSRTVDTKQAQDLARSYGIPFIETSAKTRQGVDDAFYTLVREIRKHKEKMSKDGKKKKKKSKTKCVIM
KRAS WT, sequence (P62937 whole entry): as the sequence (P62937 whole entry) above
KRAS G12V, sequence (P01116 other isoform, or with tags, fused parts or gaps G12V): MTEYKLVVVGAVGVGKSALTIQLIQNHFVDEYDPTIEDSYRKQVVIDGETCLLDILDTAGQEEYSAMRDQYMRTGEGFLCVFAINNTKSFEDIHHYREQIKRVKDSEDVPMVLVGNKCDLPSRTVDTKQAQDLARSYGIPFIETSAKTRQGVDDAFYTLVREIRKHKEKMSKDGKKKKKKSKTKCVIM
KRAS G12V, sequence (P62937 whole entry): as the sequence (P62937 whole entry) above
NRAS G12C, sequence (P01111 whole entry G12C): as the sequence (P01111 whole entry) above, with G12C counted along it
NRAS G12C, sequence (P62937 whole entry): as the sequence (P62937 whole entry) above
NRAS Q61K, sequence (P01111 whole entry Q61K): as the sequence (P01111 whole entry) above, with Q61K counted along it
NRAS Q61K, sequence (P62937 whole entry): as the sequence (P62937 whole entry) above
NRAS Q61R, sequence (P01111 whole entry Q61R): as the sequence (P01111 whole entry) above, with Q61R counted along it
NRAS Q61R, sequence (P62937 whole entry): as the sequence (P62937 whole entry) above
KRAS G12C, sequence (P01116-2 other isoform, or with tags, fused parts or gaps G12C): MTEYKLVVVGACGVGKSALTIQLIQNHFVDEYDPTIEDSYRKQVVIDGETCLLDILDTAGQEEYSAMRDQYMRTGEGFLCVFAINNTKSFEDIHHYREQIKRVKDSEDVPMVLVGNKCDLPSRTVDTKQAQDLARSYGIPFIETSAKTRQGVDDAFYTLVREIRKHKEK
KRAS G12C, sequence (P62937 whole entry): as the sequence (P62937 whole entry) above

Turning to `CCn1c(-c2cccnc2[C@H](C)OC)c2c3cc(ccc31)-c1csc(n1)C[C@H](NC(=O)[C@H](C(C)C)N1CCC3(COC3)C1)C(=O)N1CCC[C@H](N1)C(=O)OCC(C)(C)C2` [Compound A561], the IC50 was in the range of 10 to 100 nM at NRAS WT; 10 to 100 nM on KRAS G12C; 100 to 1000 nM at KRAS G13C; 100 to 1000 nM at KRAS G13D; 10 to 100 nM on NRAS Q61R; 10 to 100 nM on KRAS G12S. Further, the IC50 at KRAS Q61H was in the range of 10 to 100 nM; at KRAS G12D it was 100 to 1000 nM; at KRAS G12V, 100 to 1000 nM; on KRAS WT, 10 to 100 nM; on NRAS G12C, 10 to 100 nM; on NRAS Q61K, 10 to 100 nM. Moreover, the IC50 in [1] (Homo sapiens, CAPAN-1, 120 h) was 10 to 100 nM; in [2] (Homo sapiens, NCI-H358, 120 h) it was less than 10 nM.

As to `CCn1c(-c2cccnc2[C@H](C)OC)c2c3cc(ccc31)-c1cc(O)cc(c1)C[C@H](NC(=O)[C@H](C(C)C)N(C)C(=O)N1CC(N(C)C)C1)C(=O)N1CCC[C@H](N1)C(=O)OCC(C)(C)C2` [Compound A170], in experiment [3], the EC50 is less than 5000 nM. Besides, the IC50 at NRAS WT was 100 to 1000 nM; at KRAS G13C, 100 to 1000 nM; against NRAS Q61R it was 100 to 1000 nM; on KRAS Q61H it was 100 to 1000 nM; at KRAS G12D, 1000 to 10000 nM; against NRAS Q61K it was 10 to 100 nM. Moreover, the IC50 in experiment [1] and in experiment [2] was 10 to 100 nM each time.

For the molecule `CCn1c(-c2cc(N3CCN(C)CC3)cnc2[C@H](C)OC)c2c3cc(ccc31)-c1csc(n1)C[C@H](NC(=O)[C@H](C(C)C)N(C)C(=O)[C@@H]1OCC[C@@H]1c1cccnc1)C(=O)N1CCC[C@H](N1)C(=O)OCC(C)(C)C2` [Compound A490], in [3] (Homo sapiens), the EC50 is less than 5000 nM. Also, the IC50 was in the range of 100 to 1000 nM at NRAS WT; 100 to 1000 nM at KRAS G12C; 100 to 1000 nM on KRAS G13C; 1000 to 10000 nM at KRAS G13D; 100 to 1000 nM against NRAS Q61R; 100 to 1000 nM on KRAS G12S. Further, the half-inhibitory concentration (IC50) against KRAS Q61H fell in the range of 100 to 1000 nM; at KRAS G12D, 1000 to 10000 nM; at KRAS G12V, 100 to 1000 nM; on KRAS WT, 100 to 1000 nM; on NRAS G12C, 100 to 1000 nM; on NRAS Q61K, 100 to 1000 nM. Further, the IC50 in experiment [1] (Homo sapiens, CAPAN-1, 120 h) lay in the range of 10 to 100 nM.

For the molecule `CCn1c(-c2cccnc2[C@H](C)OC)c2c3cc(ccc31)-c1csc(n1)C[C@H](NC(=O)[C@H](C(C)C)N(C)C(=O)N1CC[C@@]13CCCNC3)C(=O)N1CCC[C@H](N1)C(=O)OCC(C)(C)C2` [Compound A435], the EC50 in [3] (Homo sapiens) is less than 5000 nM. Also, the IC50 fell in the range of 100 to 1000 nM at NRAS WT; 100 to 1000 nM on KRAS G12C; 100 to 1000 nM at KRAS G13C; 100 to 1000 nM at KRAS G13D; 1000 to 10000 nM against NRAS Q61R; 100 to 1000 nM on KRAS G12S. The half-inhibitory concentration (IC50) against KRAS Q61H lay in the range of 100 to 1000 nM; at KRAS G12D, 100 to 1000 nM; at KRAS G12V, 1000 to 10000 nM; on KRAS WT, 100 to 1000 nM; on NRAS G12C, 100 to 1000 nM; against NRAS Q61K, 1000 to 10000 nM. Moreover, in experiment [1] (Homo sapiens, CAPAN-1, 120 h), the IC50 was in the range of 1000 to 10000 nM.

With `CCn1c(-c2cccnc2[C@H](C)OC)c2c3cc(ccc31)-c1csc(n1)C[C@H](NC(=O)[C@H](C(C)C)N(C)C(=O)N1CC3(CCCN(C)C3=O)C1)C(=O)N1CCC[C@H](N1)C(=O)OCC(C)(C)C2` [Compound A453], the half-inhibitory concentration (IC50) on NRAS WT was in the range of 1000 to 10000 nM; at KRAS G12C, 100 to 1000 nM; at KRAS G13C it was 1000 to 10000 nM; against NRAS Q61R it was 100 to 1000 nM; on KRAS G12S, 1000 to 10000 nM; against KRAS Q61H, 100 to 1000 nM. Moreover, the IC50 on KRAS G12D is more than 10000 nM; on KRAS G12V it was 1000 to 10000 nM; at KRAS WT, 1000 to 10000 nM; on NRAS G12C it was 100 to 1000 nM; at NRAS Q61K, 100 to 1000 nM; in experiment [1] (Homo sapiens, CAPAN-1, 120 h), 1000 to 10000 nM. The half-inhibitory concentration (IC50) in [2] (Homo sapiens, NCI-H358, 120 h) was 1000 to 10000 nM.

Usually IC50 stands for the concentration at which inhibition is half-maximal. Broadly, the EC50 is the concentration that produces a half-maximal response.
